Results as given in patent publication US20210261512A1, “NOVEL COMPOUNDS” (INFLAZOME LIMITED, priority 2018, published 2021).
Each block holds one compound with its values, some of them ahead of it.

Assays:
NLRP3 [1] = target: T1, NLRP3 (Homo sapiens, UniProt Q96P20); test: THP-1 cells pyroptosis assay; format: cell-based; parameters: Seed THP-1 cells (25,000 cells/well) containing 1.0 μg/ml LPS; host or cells: THP-1; conditions: LPS 1.0 μg/ml, nigericin 5 μM, resazurin readout, 10 μM top dose (Example 2: top dose of 30 μM)
In short: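 THP-1 cells (25,000/well) primed with 1 μg/ml LPS in serum-free RPMI, treated with compound (8-point dilution, 10 μM top unless stated; 0.1% DMSO) 3 h at 37°C, then nigericin 5 μM 1 h. Viability read by resazurin (100 μM, 1-2 h) fluorescence; IC50 from 4-parameter fit.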

NLRP3 [2] = target: T1, NLRP3; test: Human whole blood IL1β release assay; format: cell-based; conditions: LPS 1 μg/ml, nigericin 10 μM, IL-1β AlphaLisa, 10 μM top dose (Example 2: top dose of 30 μM), read-out: HWB IC50
In short: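 Healthy-donor heparinised human whole blood with 1 μg/ml LPS, compound (8-point half-log dilution, 10 μM top dose unless stated; 0.1% DMSO vehicle) for 3 h at 37 °C, then nigericin 10 μM final for 1 h. Supernatant IL-1β by AlphaLISA; IC50 from 4-parameter variable-slope fit.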

T1 sequence (Q96P20 whole entry): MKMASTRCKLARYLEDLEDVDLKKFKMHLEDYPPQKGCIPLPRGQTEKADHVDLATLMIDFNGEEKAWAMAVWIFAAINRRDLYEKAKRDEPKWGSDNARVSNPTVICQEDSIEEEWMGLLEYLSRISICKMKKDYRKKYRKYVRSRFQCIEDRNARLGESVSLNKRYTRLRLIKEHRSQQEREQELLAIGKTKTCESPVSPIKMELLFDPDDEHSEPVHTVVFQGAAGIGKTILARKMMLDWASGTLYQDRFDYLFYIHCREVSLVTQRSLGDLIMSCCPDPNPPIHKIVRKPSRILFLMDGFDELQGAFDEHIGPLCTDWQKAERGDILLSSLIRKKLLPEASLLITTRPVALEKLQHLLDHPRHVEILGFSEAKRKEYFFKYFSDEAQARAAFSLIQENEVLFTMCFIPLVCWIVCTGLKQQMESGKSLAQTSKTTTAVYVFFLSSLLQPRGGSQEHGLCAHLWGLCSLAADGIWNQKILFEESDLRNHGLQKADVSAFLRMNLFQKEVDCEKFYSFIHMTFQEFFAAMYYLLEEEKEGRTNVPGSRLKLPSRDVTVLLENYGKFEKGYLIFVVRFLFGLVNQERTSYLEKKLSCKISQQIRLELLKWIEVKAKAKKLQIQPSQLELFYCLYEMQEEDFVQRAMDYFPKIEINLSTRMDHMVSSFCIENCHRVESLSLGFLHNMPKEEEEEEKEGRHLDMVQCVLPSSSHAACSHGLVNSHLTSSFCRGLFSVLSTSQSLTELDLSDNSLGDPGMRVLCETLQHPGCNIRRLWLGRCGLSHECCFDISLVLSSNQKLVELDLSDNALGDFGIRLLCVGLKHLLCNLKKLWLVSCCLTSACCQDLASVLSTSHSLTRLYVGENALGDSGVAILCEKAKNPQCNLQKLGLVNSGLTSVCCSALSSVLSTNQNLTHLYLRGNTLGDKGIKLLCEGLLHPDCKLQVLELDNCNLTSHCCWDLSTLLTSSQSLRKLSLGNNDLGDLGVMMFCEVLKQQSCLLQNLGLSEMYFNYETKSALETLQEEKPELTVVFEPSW

SMILES: CN1CCC2(CC1)CN(S(=O)(=O)c1nnc(Nc3c4c(cc5c3CCC5)CCC4)[nH]1)C2 [Example 275, N-(1,2,3,5,6,7-hexahydro-s-indacen-4-yl)-5-((7-methyl-2,7-diazaspiro[3-5]nonan-2-yl)sulfonyl)-4H-1,2,4-triazol-3-amine]
- IC50 (NLRP3 [1]): ≤ 5 µM
- IC50 (NLRP3 [2]): ≤ 1 µM

SMILES: CN(C)CC1CCCN(S(=O)(=O)c2nnc(Nc3c4c(cc5c3CCC5)CCC4)[nH]2)C1 (stereo not drawn) [Example 305, 5-((3-((dimethylamino)methyl)piperidin-1-yl)sulfonyl)-N-(1,2,3,5,6,7-hexahydro-s-indacen-4-yl)-4H-1,2,4-triazol-3-amine]
- IC50 (NLRP3 [1]): ≤ 5 µM
- IC50 (NLRP3 [2]): ≤ 5 µM

SMILES: COC1(c2cc(S(=O)(=O)c3nnc(Nc4c5c(cc6c4CCC6)CCC5)[nH]3)nn2C)COC1 [Example 12, N-(1,2,3,5,6,7-hexahydro-s-indacen-4-yl)-5-((5-(3-methoxyoxetan-3-yl)-1-methyl-1H-pyrazol-3-yl)sulfonyl)-4H-1,2,4-triazol-3-amine]
- IC50 (NLRP3 [1]): ≤ 1 µM
- IC50 (NLRP3 [2]): ≤ 10 µM

SMILES: CN(C1CNC1)S(=O)(=O)c1nnc(Nc2c3c(cc4c2CCC4)CCC3)[nH]1 [Example 120, N-(azetidin-3-yl)-5-((1,2,3,5,6,7-hexahydro-s-indacen-4-yl)amino)-N-methyl-4H-1,2,4-triazole-3-sulfonamide]
- IC50 (NLRP3 [1]): ≤ 5 µM
- IC50 (NLRP3 [2]): ≤ 5 µM

SMILES: COc1cc(-c2cc(C#N)c3c(c2Nc2nnc(S(=O)(=O)c4ccccc4)[nH]2)CCC3)ccn1 [Example 192, 6-(2-methoxypyridin-4-yl)-7-((5-(phenylsulfonyl)-4H-1,2,4-triazol-3-yl)amino)-2,3-dihydro-1H-indene-4-carbonitrile]
- IC50 (NLRP3 [1]): ≤ 1 µM
- IC50 (NLRP3 [2]): ≤ 5 µM

SMILES: O=S(=O)(c1nnc(Nc2c3c(cc4c2CCC4)CCC3)[nH]1)N1CC[C@H](CNC2CC2)C1 [Example 307, (R)-5-((3-((cyclopropylamino)methyl)pyrrolidin-1-yl)sulfonyl)-N-(1,2,3,5,6,7-hexahydro-s-indacen-4-yl)-4H-1,2,4-triazol-3-amine]
- IC50 (NLRP3 [1]): ≤ 1 µM
- IC50 (NLRP3 [2]): ≤ 10 µM

SMILES: COc1cc(-c2ccc3c(c2Nc2nnc(S(=O)(=O)c4ccn(C(C)C)n4)[nH]2)CCC3)ccn1 [Example 34, 5-((1-isopropyl-1H-pyrazol-3-yl)sulfonyl)-N-(5-(2-methoxypyridin-4-yl)-2,3-dihydro-1H-inden-4-yl)-4H-1,2,4-triazol-3-amine]
- IC50 (NLRP3 [1]): ≤ 1 µM
- IC50 (NLRP3 [2]): ≤ 5 µM

SMILES: O=S(=O)(NCCCN1CCCC1)c1nnc(Nc2c3c(cc4c2CCC4)CCC3)[nH]1 [Example 126, 5-((1,2,3,5,6,7-hexahydro-s-indacen-4-yl)amino)-N-(3-(pyrrolidin-1-yl)propyl)-4H-1,2,4-triazole-3-sulfonamide]
- IC50 (NLRP3 [1]): ≤ 1 µM
- IC50 (NLRP3 [2]): ≤ 5 µM

SMILES: O=S(=O)(c1nnc(Nc2c3c(cc4c2CCC4)CCC3)[nH]1)N1CCC(N2CCCC2)CC1 [Example 124, N-(1,2,3,5,6,7-hexahydro-s-indacen-4-yl)-5-((4-(pyrrolidin-1-yl)piperidin-1-yl)sulfonyl)-4H-1,2,4-triazol-3-amine]
- IC50 (NLRP3 [1]): ≤ 1 µM
- IC50 (NLRP3 [2]): ≤ 5 µM

SMILES: O=S(=O)(NCCN1CCC1)c1nnc(Nc2c3c(cc4c2CCC4)CCC3)[nH]1 [Example 89, N-(2-(azetidin-1-yl)ethyl)-5-((1,2,3,5,6,7-hexahydro-s-indacen-4-yl)amino)-4H-1,2,4-triazole-3-sulfonamide]
- IC50 (NLRP3 [1]): ≤ 1 µM
- IC50 (NLRP3 [2]): ≤ 5 µM

SMILES: O=S(=O)(c1nnc(Nc2c3c(cc4c2CCC4)CCC3)[nH]1)N1CC[C@H](CN2CCCC2)C1 [Example 306, (R)—N-(1,2,3,5,6,7-hexahydro-s-indacen-4-yl)-5-((3-(pyrrolidin-1-ylmethyl)pyrrolidin-1-yl)sulfonyl)-4H-1,2,4-triazol-3-amine]
- IC50 (NLRP3 [1]): ≤ 1 µM
- IC50 (NLRP3 [2]): ≤ 1 µM

SMILES: [2H]C([2H])([2H])Oc1cc(-c2ccc3c(c2Nc2nnc(S(=O)(=O)N4CC5(CCN(C)C5)C4)[nH]2)CCC3)ccn1 [Example 196, N-(5-(2-(methoxy-d)pyridin-4-yl)-2,3-dihydro-1H-inden-4-yl)-5-((6-methyl-2,6-diazaspiro[3.4]octan-2-yl)sulfonyl)-4H-1,2,4-triazol-3-amine]
- IC50 (NLRP3 [1]): ≤ 0.5 µM
- IC50 (NLRP3 [2]): ≤ 0.5 µM

SMILES: COc1cc(-c2ccc3c(c2Nc2nnc(S(=O)(=O)N4CCC5(CCCN5C)CC4)[nH]2)CCO3)ccn1 [Example 211, N-(5-(2-methoxypyridin-4-yl)-2,3-dihydrobenzofuran-4-yl)-5-((1-methyl-1,8-diazaspiro[4.5]decan-8-yl)sulfonyl)-4H-1,2,4-triazol-3-amine]
- IC50 (NLRP3 [1]): ≤ 0.5 µM
- IC50 (NLRP3 [2]): ≤ 5 µM

SMILES: O=S(=O)(c1nnc(Nc2c3c(cc4c2CCC4)CCC3)[nH]1)N1CCC(N2CCCC2)C1 (stereo not drawn) [Example 104, 5-([1,3′-bipyrrolidin]-1′-ylsulfonyl)-N-(1,2,3,5,6,7-hexahydro-s-indacen-4-yl)-4H-1,2,4-triazol-3-amine]
- IC50 (NLRP3 [1]): ≤ 0.5 µM
- IC50 (NLRP3 [2]): ≤ 5 µM

More lines, now with the values ahead:

- IC50 (NLRP3 [1]): ≤ 0.5 µM
- IC50 (NLRP3 [2]): ≤ 5 µM
SMILES: COc1cc(-c2cc(F)cc(C(C)C)c2Nc2nnc(S(=O)(=O)N3CCC4(CCCN4C)CC3)[nH]2)ccn1 [Example 260, N-(4-fluoro-2-isopropyl-6-(2-methoxypyridin-4-yl)phenyl)-5-((1-methyl-1,8-diazaspiro[4.5]decan-8-yl)sulfonyl)-4H-1,2,4-triazol-3-amine]

- IC50 (NLRP3 [1]): ≤ 0.5 µM
- IC50 (NLRP3 [2]): ≤ 1 µM
SMILES: CN1CCC12CCN(S(=O)(=O)c1nnc(Nc3c(-c4ccnc(OC(F)F)c4)ccc4c3CCO4)[nH]1)CC2 [Example 202, N-(5-(2-(difluoromethoxy)pyridin-4-yl)-2,3-dihydrobenzofuran-4-yl)-5-((1-methyl-1,7-diazaspiro[3.5]nonan-7-yl)sulfonyl)-4H-1,2,4-triazol-3-amine]

- IC50 (NLRP3 [1]): ≤ 0.5 µM
- IC50 (NLRP3 [2]): ≤ 1 µM
SMILES: CN1CCOC2(C1)CN(S(=O)(=O)c1nnc(Nc3c4c(cc5c3CCC5)CCC4)[nH]1)C2 [Example 295, N-(1,2,3,5,6,7-hexahydro-s-indacen-4-yl)-5-((8-methyl-5-oxa-2,8-diazaspiro[3-5]nonan-2-yl)sulfonyl)-4H-1,2,4-triazol-3-amine]

- IC50 (NLRP3 [1]): ≤ 0.5 µM
- IC50 (NLRP3 [2]): ≤ 1 µM
SMILES: CCN(CC)CCCNS(=O)(=O)c1nnc(Nc2c3c(cc4c2CCC4)CCC3)[nH]1 [Example 109, N-(3-(diethylamino)propyl)-5-((1,2,3,5,6,7-hexahydro-s-indacen-4-yl)amino)-4H-1,2,4-triazole-3-sulfonamide]

- IC50 (NLRP3 [1]): ≤ 0.5 µM
- IC50 (NLRP3 [2]): ≤ 1 µM
SMILES: CN(C)C1CCN(S(=O)(=O)c2nnc(Nc3c(-c4ccncc4)ccc4c3CCC4)[nH]2)CC1 [Example 219, N,N-dimethyl-1-((5-((5-(pyridin-4-yl)-2,3-dihydro-1H-inden-4-yl)amino)-4H-1,2,4-triazol-3-yl)sulfonyl)piperidin-4-amine]

- IC50 (NLRP3 [1]): ≤ 0.5 µM
- IC50 (NLRP3 [2]): ≤ 5 µM
SMILES: COc1cc(-c2cc(F)cc(C(C)C)c2Oc2nnc(S(=O)(=O)N3CCC4(CCCN4C)CC3)[nH]2)ccn1 [Example 251, 8-((5-(4-fluoro-2-isopropyl-6-(2-methoxypyridin-4-yl)phenoxy)-4H-1,2,4-triazol-3-yl)sulfonyl)-1-methyl-1,8-diazaspiro[4.5]decane]

- IC50 (NLRP3 [1]): ≤ 0.5 µM
- IC50 (NLRP3 [2]): ≤ 10 µM
SMILES: O=S(=O)(c1nnc(Nc2c3c(cc4c2CCC4)CCC3)[nH]1)N1CC(N2CCCCC2)C1 [Example 133, N-(1,2,3,5,6,7-hexahydro-s-indacen-4-yl)-5-((3-(piperidin-1-yl)azetidin-1-yl)sulfonyl)-4H-1,2,4-triazol-3-amine]

- IC50 (NLRP3 [1]): ≤ 0.5 µM
- IC50 (NLRP3 [2]): ≤ 0.5 µM
SMILES: CC(C)c1cnn(-c2ccncc2)c1Nc1nnc(S(=O)(=O)N2CCC(N(C)C)CC2)[nH]1 [Example 197, 1-((5-((4-isopropyl-1-(pyridin-4-yl)-1H-pyrazol-5-yl)amino)-4H-1,2,4-triazol-3-yl)sulfonyl)-N,N-dimethylpiperidin-4-amine]

- IC50 (NLRP3 [1]): ≤ 0.5 µM
- IC50 (NLRP3 [2]): ≤ 1 µM
SMILES: CC(C)c1cc(F)cc(C(C)C)c1Nc1nc(S(=O)(=O)N2CCC(CN(C)C)C2)n[nH]1 (stereo not drawn) [Example 241, 3-((3-((dimethylamino)methyl)pyrrolidin-1-yl)sulfonyl)-N-(4-fluoro-2,6-diisopropylphenyl)-1H-1,2,4-triazol-5-amine]

- IC50 (NLRP3 [1]): ≤ 0.5 µM
- IC50 (NLRP3 [2]): ≤ 5 µM
SMILES: COc1cc(-c2ccc3c(c2Nc2nnc(S(=O)(=O)c4cccc(CN(C)C)c4)[nH]2)CCC3)ccn1 [Example 329, 5-((3-((dimethylamino)methyl)-phenyl)sulfonyl)-N-(5-(2-methoxypyridin-4-yl)-2,3-dihydro-1H-inden-4-yl)-4H-1,2,4-triazol-3-amine]

- IC50 (NLRP3 [1]): ≤ 0.5 µM
- IC50 (NLRP3 [2]): ≤ 5 µM
SMILES: CN(C)Cc1cccc(S(=O)(=O)c2nnc(Nc3c4c(cc5c3CCC5)CCC4)[nH]2)c1 [Example 44, 5-((3-((dimethylamino)methyl)phenyl)sulfonyl)-N-(1,2,3,5,6,7-hexahydro-s-indacen-4-yl)-4H-1,2,4-triazol-3-amine]

- IC50 (NLRP3 [1]): ≤ 0.5 µM
- IC50 (NLRP3 [2]): ≤ 0.5 µM
SMILES: CCN(CC)C[C@@H]1CCN(S(=O)(=O)c2nnc(Nc3c4c(cc5c3CCC5)CCC4)[nH]2)C1 [Example 143, (S)-5-((3-((diethylamino)methyl)pyrrolidin-1-yl)sulfonyl)-N-(1,2,3,5,6,7-hexahydro-s-indacen-4-yl)-4H-1,2,4-triazol-3-amine]

- IC50 (NLRP3 [1]): ≤ 0.5 µM
- IC50 (NLRP3 [2]): ≤ 5 µM
SMILES: CN(C)C1CCN(S(=O)(=O)c2nnc(Nc3c(-c4ccnc(C5CC5)c4)ccc4c3CCC4)[nH]2)CC1 [Example 199, 1-((5-((5-(2-cyclopropylpyridin-4-yl)-2,3-dihydro-1H-inden-4-yl)amino)-4H-1,2,4-triazol-3-yl)sulfonyl)-N,N-dimethylpiperidin-4-amine]
